The values below come from patent US5700640A, “Inducers of gamma globin gene expression and screening assays therefor” (priority 1994, dated 1997).

The subject of data set [1] is K562 cells. As to the kind of experiment: in vitro. Here is the method: (§1) To normalize luciferase units to the number of viable cells, parallel cell viability assays were performed using 3-(4,5-dimethylthiazol-2-yl)-2,5-diphenyltetrazolium bromide (MTT) (Vistica, D. T. et al. (1991) Cancer Res. 51:2515-2520). Transfected K562 cells were plated in 96 well dishes at a density of 2×10^4 and 2×10^3 cells per 100 μl per well. 24 hours later, the cells were treated with test compounds (at a final concentration of 5 mM). At 24, 50, 74 or 122 hours after treatment, 50 μl of 3 mg/ml MTT in PBS was added to each well. The 96 well plate was then incubated at 37° C. for 4 to 5 hours. The formazan derivatives formed from tetrazolium by viable cells were solubilized by the addition of 50 μl/well 25% SDS, pH 3, overnight at 37° C. The plates were than read at a wavelength of 550 nm.

A short description of data set [2]: in vitro. The note with it: human, k562 cells. Here is the method: as §1

In general, viability refers to a read-out of living cells in per cent, often relative to untreated cells. With `CCCC(=O)O` [BA, butyric acid], the “effect on cell viability within 24 hours (FIG. 7)” value in data set [1] is “negative effect on cell viability within 24 hours after treatment”. In data set [2], the cytotoxicity at 72 h, 5000 µM was about 100% and the viability at 122 h, 5000 µM is under 30%.
